Structures are written as SMILES. “Also recorded” adds a separate entry of the source.

Data on four compounds can be found in patent US20220110902A1, “Methods of treating amyloid-beta peptide diseases” (Ecole Polytechnique Federale de Lausanne, priority 2016, published 2022).

For series [1], the system named is SH-SY5Y neuroblastoma cell line expressing the APP Swedish K670N/M671L double mutation (APPSwe). As to the kind of experiment: Immunostaining of intracellular Aβ deposits in APPSwe SH-SY5Y cells. The series is classed as cell-based, human. As for the experimental part: The SH-SY5Y neuroblastoma cell line expressing the APP Swedish K670N/M671L double mutation (APPSwe) was a kind gift of Prof. Cedazo-Minguez (Karolinska Institute, Sweden). Cells were grown in DMEM/F-12, supplemented with 10% fetal bovine serum (FBS, Gibco), GlutaMAX (100×, Gibco) and penicillin/streptomycin (1×, Gibco). Cells were selected in 4 μg/mL Geneticin® Selective Antibiotic (G418 Sulfate, Sigma) and grown for three generations before experiments with cells plated and passaged at 4×10^3 cells/ml and 60% confluence, respectively. Cells were cultured at 37° C. under a 5% CO2 atmosphere and tested for mycoplasma using Mycoprobe (#CUL001B, R&D systems) following the manufacturer's instructions. Cells were treated with 10 μg/mL dox, NR 1 or 3 mM, ISRIB 0.5 μM (Sigma), as indicated for 24 hours before cell harvesting or fixation. For the immunostaining, cells were fixed with 1× Formal-Fixx (Thermo Scientific) for 15 min. After 15 min permeabilization with 0.1% Triton X-100, cells were blocked in PBS supplemented with 5% fetal bovine serum for 1 hour and immunostained overnight, at 4° C., with the anti-β-Amyloid 1-42 (1:100, Millipore AB5078P). The secondary antibody was coupled to the Alexa-488 fluorochrome (Thermo Scientific), and nuclei were stained with DAPI (Invitrogen, D1306). After washing in PBS, cell slides were mounted with Dako mounting medium (Dako, S3023) and examined with a Zeiss LSM 700 confocal microscope (Carl Zeiss MicroImaging) equipped with a Plan-Apochromat 40×/1.3 NA oil immersion objective lens using a 488 nm laser. Laser power was set at the lowest intensity allowing clear visualization of the signal. Imaging settings were maintained with the same parameters for comparison between different experimental conditions.
The SH-SY5Y neuroblastoma cell line expresses the APP Swedish K670N/M671L double mutation (APPSwe) (Zheng et al., 2011) and accumulates intracellular Aβ amyloid aggregates. Cells were grown in DMEM/F-12, supplemented with 10% fetal bovine serum (FBS, Gibco), GlutaMAX (100×, Gibco) and penicillin/streptomycin (1×, Gibco). Cells were selected in 4 μg/mL Geneticin® Selective Antibiotic (G418 Sulfate, Sigma) and grown for three generations before experiments with cells plated and passaged at 4×10{right arrow over ( )}3 cells/ml and 60% confluence, respectively. Cells were cultured at 37° C. under a 5% CO2 atmosphere and tested for mycoplasma using Mycoprobe (#CUL001B, R&D systems), following the manufacturer's instructions. Myriocin was dissolved in DMSO.
Cells were treated with 10 uM Myriocin and Fumonisin B1 for 24 hours before harvesting or fixation (FIG. 3A). For immunostaining, cells were fixed with 1× Formal-Fixx (Thermo Scientific) for 15 min. […]

The next series relates to SH-SY5Y(APPSwe) cells. As to the kind of experiment: Western-blot and transcript analysis in SH-SY5Y(APPSwe) cells. The series is classed as cell-based, human. Conditions: ISRIB 0.5 μM with dox 10 μg/mL, 24 h. As for the experimental part:
Human – Total RNA was extracted using guanidine-isothiocyanate lysis (PureLink, Ambion, Waltham, Mass.) from cortex samples, and RNA integrity and concentration was verified using Bioanalysis (Agilent, Santa Clara, Calif.). Samples were randomized based on diagnostic group and assayed in triplicate on a real-time PCR cycler (ABI 7500, Applied Biosystems, Foster City) in 96-well optical plates. qPCR was performed using Taqman hydrolysis probe primer sets (Applied Biosystems) specific for the following human transcripts: HSPA9, HSPD1, YMEIL1, DNM1L, BECN1, SQSTM1, PARK2, COX5A, CYC1. A primer set specific for human GAPDH was used as a control housekeeping transcript. For the APPSwe-expressing SH-SY5Y cell line, total RNA was extracted […] using TriPure RNA isolation reagent, and expression of selected transcripts was analyzed using the LightCycler480 system (Roche) and LightCycler® 480 SYBR Green I Master reagent (Roche). The GAPDH gene was used as housekeeping reference. The ddCT method was employed to determine relative levels of each amplicon. […] The SH-SY5Y neuroblastoma cell line expressing the APP Swedish K670N/M671L double mutation (APPSwe) was a kind gift of Prof. Cedazo-Minguez (Karolinska Institute, Sweden). Cells were grown in DMEM/F-12, supplemented with 10% fetal bovine serum (FBS, Gibco), GlutaMAX (100×, Gibco) and penicillin/streptomycin (1×, Gibco). Cells were selected in 4 μg/mL Geneticin® Selective Antibiotic (G418 Sulfate, Sigma) and grown for three generations before experiments with cells plated and passaged at 4×10^3 cells/ml and 60% confluence, respectively. Cells were cultured at 37° C. under a 5% CO2 atmosphere and tested for mycoplasma using Mycoprobe (#CUL001B, R&D systems) following the manufacturer's instructions. Cells were treated with 10 μg/mL dox, NR 1 or 3 mM, ISRIB 0.5 μM (Sigma), as indicated for 24 hours before cell harvesting or fixation. For the immunostaining, cells were fixed with 1× Formal-Fixx (Thermo Scientific) for 15 min. […]

For series [2], the system named is GMC101 worms. Description: Western-blot of amyloid aggregation in GMC101 worms. Conditions: GMC101, 24 h after shift to 25° C.; UA 20 uM and 50 uM. The series is classed as in vivo, C. elegans. As for the experimental part:
C. elegans: Worms were lysed by sonication with RIPA buffer containing protease and phosphatase inhibitors (Roche), and analyzed by SDS-PAGE and western blot. The concentration of extracted protein was determined by using the Bio-Rad Protein Assay. Proteins were detected using the following antibodies: anti-β-actin (Sigma), anti-tubulin (Santa Cruz), atp-5, ucr-1 (Oxphos cocktail, Abcam), anti-β-Amyloid, 1-16 (6E10) (BioLegend). In addition to the housekeeping proteins, loading was monitored by Ponceau Red to ensure a homogeneous loading. Pixel intensity was quantified by using ImageJ software. Each immunoblot experiment was repeated at least twice using 3 biological replicates each containing approximately 1000 worms.
(§1) During the assays, animals were exposed to Myriocin (dissolved in DMSO) from the egg stage on plates seeded with live HT115 E. coli bacteria. Control plates seeded with the same bacteria were prepared with the corresponding concentrations of DMSO. The day of the experiment (day 1 of adulthood, 3 days after hatching), the GMC101 population was shifted to 25° C. in order to induce the amyloid deposition in the body wall muscle. ˜1000 worms were used for western blotting assays.
Worms were lysed by sonication with RIPA buffer containing protease and phosphatase inhibitors (Roche), and analyzed by western blot. The concentration of extracted protein was determined by the Bio-Rad Protein Assay. Proteins were detected using the following antibodies: anti-β-actin (Sigma) and anti-β-Amyloid (BioLegend). In addition to the housekeeping proteins, loading was monitored by Ponceau Red to ensure a homogeneous loading. The immunoblot experiment employed 3 biological replicates, each containing approximately 1000 worms.
Worms were lysed by sonication with RIPA buffer containing protease and phosphatase inhibitors (Roche), and analyzed by western blot. The concentration of extracted proteins was determined by the Bio-Rad Protein Assay. Proteins were detected using the following antibodies: anti-β-actin (Sigma) and anti-β-Amyloid (BioLegend). In addition to the housekeeping proteins, loading was monitored by Ponceau Red to ensure a homogeneous loading. The immunoblot experiment employed 3 biologicals replicates, each containing approximately 1000 worms.
The GMC101 worms were recovered 24 h after being shifted at 25° C. The population was treated with UA at two different concentrations, ie 20 uM and 50 uM.

In series [3] the test system is mouse models of age-related decline of muscle function. Conditions: mouse models of age-related decline of muscle function, and young rats; cited from earlier work.
Series [4] deals with GMC101 worms. As to the kind of experiment: Worm phenotypic assays in GMC101: mobility, paralysis and death score. Conditions: GMC101, period of 4 days; UA 20 uM and 50 uM. The series is classed as in vivo, C. elegans. As for the experimental part:
Doxycycline was obtained from Sigma-Aldrich and dissolved in water. For experiments, a final concentration of 15 μg/mL was used. Olaparib (AZD2281) was dissolved in DMSO to experimental concentrations of 300 nM. Nicotinamide Riboside triflate (NR) was custom synthesized by Novalix (www.novalix-pharma.com/) and dissolved in water, and used at a final concentration of 1 mM. Compounds were added just before pouring the plates. For phenotyping experiments, parental F0 L4 worms were allowed to reach adulthood and lay eggs on the treatment plates. The deriving F1 worms were therefore exposed to compounds during the full life from eggs until death. For RNA analysis experiments, synchronized L1 worms were exposed to the compounds until harvest. To ensure a permanent exposure to the compound, plates were changed twice a week.
Mobility: C. elegans movement analysis was performed as described, starting from day 1 of adulthood, using the Movement Tracker software. The experiments were repeated at least twice.
Paralysis and death score: 5 L4 worms per condition were allowed to reach adulthood and lay eggs on the treatment plates. 45 to 60 deriving F1 worms per condition were manually scored for paralysis after poking, as already described. Worms that were unable to respond to any, repeated stimulation, were scored as dead. Results are representative of the data obtained in at least three independent experiments.
as §1
C. elegans movement analysis was performed as described (Mouchiroud et al., 2016), using the Movement Tracker software. ˜50 adult worms were used per condition for movement assays.
To score for paralysis and death, 50 worms per condition were manually scored after poking as described (McCool et al., 2012; Florez-McClure et al., 2007). Worms that were unable to respond to repeated stimulation were scored as dead.
During the assays, animals were exposed to the compound UA from egg stage on plates seeded with live HT115 E. coli bacteria. Control plates seeded with the same bacteria were prepared with the corresponding concentrations of DMSO (0.1%). The day of the experiment (day 1 of adulthood, 3 days after hatching), the GMC101 population was shifted to 25° C. in order to induce the amyloid deposition in the body wall muscle. ˜50 adult worms were used per conditions.
C. elegans movement analysis was performed as described in (Mouchiroud et al., 2016), using the Movement Tracker software within a period of 4 days.

Another series relates to C. elegans. Conditions: cited from earlier work.
For series [5], the system named is GMC101 worms. As to the kind of experiment: Development and growth of GMC101 worms. It counts as in vivo, C. elegans. Conditions: GMC101, eggs to day 1 of adulthood; dox 15 μg/mL. The procedure:
Development: 50 adult worms per condition were transferred on NGM agar plates (10 worms per plate) and allowed to lay eggs for 3 h. Then they were removed and the number of eggs per plate was counted. 72 h later, the number of L1-L3 larvae, L4 and adult worms was counted. The experiment was done twice with five individual plates.

For the compound `CCCC[C@H](C)[C@@H](OC(=O)C[C@H](CC(=O)O)C(=O)O)[C@@H](C[C@H](C)C[C@@H](O)CCCC[C@@H](O)C[C@H](O)[C@H](C)N)OC(=O)C[C@H](CC(=O)O)C(=O)O` [Fumonisin B1, (2S,2'S)-2,2′-{[(5S,6R,7R,9R,11S,16R,18S,19S)-19-Amino-11,16,18-trihydroxy-5,9-dimethylicosane-6,7-diyl]bis[oxy(2-oxoethane-2,1-diyl)]}disuccinic acid], the “intracellular Aβ deposits” value in series [1] (10 uM, 24 hours) is listed as “significantly reduced; also recorded: markedly reduced”.

Consider `O=C(COc1ccc(Cl)cc1)NC1CCC(NC(=O)COc2ccc(Cl)cc2)CC1` (centres unmarked) [ISRIB, reference compound], for which the “dox-mediated induction of ATF4 target genes CHOP and CHAC1” value in the series with SH-SY5Y(APPSwe) cells was “hampered the dox-mediated induction”. The “amyloid clearance by dox after ISRIB pretreatment” value in series [1] (ISRIB 0.5 μM with dox 10 μg/mL, 24 h) was “prevented amyloid clearance by dox”.

For `O=c1oc2cc(O)ccc2c2ccc(O)cc12` [UA, 3,8-Dihydroxyurolithin], in the series on GMC101 worms [2], the “accumulation of amyloid-β aggregates” value is given as “dose-dependently reduced; also recorded: dose-dependent reduction”. Further, in series [3], the exercise capacity entry is on record as “significantly improved exercise capacity”. Moreover, the “spontaneous movement (mobility)” value in the series on GMC101 worms [4] is reported as “dose-dependently increased; also recorded: dose-dependent increase”. Besides, the mitochondrial respiratory capacity entry with C. elegans (C. elegans during aging) is “maintaining mitochondrial respiratory capacity”. Also, in the series on C. elegans (C. elegans), the “accumulation of dysfunctional mitochondria with age” value is reported as “prevent the accumulation of dysfunctional mitochondria with age”; the “activity during aging (mobility and pharyngeal pumping)” value is given as “maintained normal activity during aging”; the lifespan result is reported as “extended lifespan”.

Consider `C[C@H]1c2cccc(O)c2C(=O)C2=C(O)[C@]3(O)C(=O)C(C(N)=O)=C(O)[C@@H](N(C)C)[C@@H]3[C@@H](O)[C@@H]21` [dox, doxycycline], for which the “development and growth delay” value in the series on GMC101 worms [5] is “without causing major development and growth delays”.
